Source: US20220087987A1, “A METHOD FOR TREATING SWI/SNF COMPLEX-DEFICIENT CANCERS COMPRISING GLUTATHIONE (GSH) METABOLIC PATHWAY INHIBITOR” (National Cancer Center, priority 2018, published 2022)
Read-outs that look alike come from different tables or passages of the source. Numbered stars: 1 amine (or outer) side, 2 acyl side, 3 side chain; on linkers, the order of the positions; unused ones are H or OH. Bridge positions count the residues as written; N and C are the ends. Square brackets hold non-standard residues; d marks the D form. Peptide text beside a SMILES is read from it. I, II: the chains in the order shown. Actinocin(9to1) = Cc1c2oc3c(C)ccc(C(=O)[*:1])c3nc-2c(C(=O)[*:2])c(N)c1=O; NMeV = CN[C@H](C(=O)O)C(C)C; Sar = CNCC(=O)O

Legend:
ARID1A-WT HCT116 cells = experiment: Drug library screen, cell viability (CellTiter-Glo); assay type: cell-based, human; set-up: key to Cell viability, WT: % viability relative to DMSO solvent-treated cells
Description: (§1) ARID1A-WT and ARID1A-KO HCT116 cancer cells were used for screening assays. […] Cell viability was assessed after 5 days using the CellTiter-Glo Luminescent Cell Viability Assay (Promega). Luminescence was measured using an Envision Multi-label plate reader (PerkinElmer). The luminescence reading was used to determine the cell viability relative to that of cells treated with solvent (DMSO). Candidate compounds were considered if viability of ARID1A-KO cells was less than […] was more than 80%.

ARID1A-KO HCT116 cells = experiment: as above; assay type: cell-based, human; set-up: key to Cell viability, KO: % viability relative to DMSO solvent-treated cells
Description: as §1

[1] = HCT116 ARID1A-WT, 10 μM for 5 days, relative to cells treated with solvent (DMSO)
[2] = HCT116 ARID1A-KO, 10 μM for 5 days, relative to cells treated with solvent (DMSO)

| SMILES | Cell viability, WT (ARID1A-WT HCT116 cells; [1]) | Cell viability, KO (ARID1A-KO HCT116 cells; [2]) | Cell viability, WT (ARID1A-WT HCT116 cells) | Cell viability, KO (ARID1A-KO HCT116 cells) |
| --- | --- | --- | --- | --- |
| O=c1[nH]c2ccccc2n1C1CCN(Cc2ccc(-c3nc4cc5[nH]cnc5cc4nc3-c3ccccc3)cc2)CC1 | 84.5 | 124.843 | – | – |
| COc1cc2c(cc1OC)-c1[nH]nc(Nc3cccc(F)c3)c1C2 | 5.928 | 12.89 | – | – |
| COc1cc2nccc(Oc3ccc(NC(=S)NC(=O)c4ccccc4C)cc3)c2cc1OC | 99 | 107.0846 | – | – |
| O=C1Cc2c([nH]c3ccc(Br)cc23)-c2ncccc2N1 [1-Azakenpaullone] | 95.89 | 114.0704 | – | – |
| C1=Cc2nc1cc1ccc([nH]1)c(-c1ccccc1)c1nc(cc3ccc([nH]3)c2-c2ccccc2)C=C1 [5,15-DPP] | 90.1195 | 98.73 | – | – |
| O=c1[nH]cc(F)c(=O)[nH]1 [5-FU] | 32.167 | 24.07 | – | – |
| C=CCNC1=C2C[C@@H](C)C[C@H](OC)[C@H](O)[C@@H](C)/C=C(\C)[C@H](OC(N)=O)[C@@H](OC)/C=C\C=C(/C)C(=O)NC(=CC1=O)C2=O [17-AAG] | 8.063 | 8.214 | – | – |
| Cc1cccc(-c2nn(C(=S)Nc3ccccc3)cc2-c2ccnc3ccccc23)n1 [A83-01] | 77.92 | 104.8454 | – | – |
| Nc1ncnc2nc(-c3ccc(N4CCOCC4)nc3)cc(-c3cccc(Br)c3)c12 [ABT-702] | 94.11 | 111.7532 | – | – |
| N#C/C(=C/c1ccc(O)c(O)c1)C(=O)NCc1ccccc1 [AG490] | 152.9882 | 114.4173 | – | – |
| COc1cc(/C=C(\C#N)C(N)=O)cc(CSc2nc3ccccc3s2)c1O [AG825] | 85.83 | 80.86 | – | – |
| COC(=O)c1ccc(NCc2cc(O)ccc2O)cc1 [AG957] | 23.69 | 17.53 | – | – |
| CC(C)(C)c1cc(C=C(C#N)C#N)cc(Br)c1O [AG1024] | 161.1636 | 183.5477 | – | – |
| COc1cc2ncc(-c3ccccc3)nc2cc1OC [AG1296] | 190.9406 | 144.7899 | – | – |
| COc1cc2ncnc(Nc3cccc(Cl)c3)c2cc1OC [AG1478] | 149.2606 | 129.9442 | – | – |
| N#C/C(=C\c1ccc2oc(=O)[nH]c2c1)C(=O)c1ccc(O)c(O)c1 [AGL 2263] | 148.6873 | 172.9001 | – | – |
| Cl.Cl.Cl.Cl.Cl.Cl.Cl.Cl.c1cc(CN2CCCNCCNCCCNCC2)ccc1CN1CCCNCCNCCCNCC1 [AMD3100 octahydrochloride] | – | – | 102.6908 | 102.0251 |
| O=C(Nc1ccc2c(O)cc(S(=O)(=O)O)cc2c1)Nc1ccc2c(O)cc(S(=O)(=O)O)cc2c1 [AMI-1] | – | 85.52 | – | – |
| CC1CCN=C(N)S1.Cl (centres unmarked) [AMT, HCl] | 171.2223 | 139.818 | – | – |
| O=c1cc(-c2cccc3c2Sc2ccccc2S3)oc(N2CCOCC2)c1 [ATM kinase inhibitor] | 70.42 | 83.21 | – | – |
| O=C(NC(NC(=S)Nc1ccc(F)c([N+](=O)[O-])c1)C(Cl)(Cl)Cl)C(c1ccccc1)c1ccccc1 (centres unmarked) [ATM/ATR kinase inhibitor] | 59.07 | 76.77 | – | – |
| Clc1ccccc1CNCC1CCC(CNCc2ccccc2Cl)CC1 (centres unmarked) [AY 9944] | 31.41 | 50.15 | – | – |
| Cc1cn([C@H]2C[C@H](N=[N+]=[N-])[C@@H](CO)O2)c(=O)[nH]c1=O [AZT] | 71.38 | 60.27 | – | – |
| Cc1c2oc3c(C)ccc(C(=O)N[C@@H]4C(=O)N[C@H](C(C)C)C(=O)N5CCC[C@H]5C(=O)N(C)CC(=O)N(C)[C@@H](C(C)C)C(=O)O[C@@H]4C)c3nc-2c(C(=O)N[C@@H]2C(=O)N[C@H](C(C)C)C(=O)N3CCC[C@H]3C(=O)N(C)CC(=O)N(C)[C@@H](C(C)C)C(=O)O[C@@H]2C)c(N)c1=O [Actinomycin D] (I: T[dV]P[Sar][NMeV] / II: T[dV]P[Sar][NMeV]; ester I:1-I:C, II:1-II:C; linker I:N-II:N via Actinocin(9to1)) | 6.951 | 6.531 | – | – |
| N#CCCc1ccc2c(c1)-c1[nH]c3ccc([N+](=O)[O-])cc3c1CC(=O)N2 [Alsterpaullone, 2-cyanoethyl] | 6.82 | 14.55 | – | – |
| CCCCCCCCCCCCCCCc1cccc(O)c1C(=O)O [Anacardic acid] | 102.71 | 112.6464 | – | – |
| COc1cc2ncnc(Nc3ccc(NC(=O)c4ccccc4)cc3)c2cc1OC [Aurora kinase inhibitor II] | 53.336 | 60.46 | – | – |
| Nc1ncn([C@@H]2O[C@H](CO)[C@@H](O)[C@H]2O)c(=O)n1 [Azacytidine] | 86.54 | 43.39 | – | – |

| SMILES | Cell viability, WT (ARID1A-WT HCT116 cells; [1]) | Cell viability, KO (ARID1A-KO HCT116 cells; [2]) | Cell viability, WT (ARID1A-WT HCT116 cells) | Cell viability, KO (ARID1A-KO HCT116 cells) |
| --- | --- | --- | --- | --- |
| CC(C)(c1ccc(OCC2CO2)cc1)c1ccc(OCC2CO2)cc1 (centres unmarked) [BADGE] | 93.59 | 107.888 | – | – |
| CC(C)C(C(=O)O)N1C(=O)/C(=C\c2ccc(Br)cc2)SC1=S (centres unmarked) [BH3I-1] | 99.91 | 109.7951 | – | – |
| O=C1Nc2cc(Br)ccc2/C1=C1/Nc2ccccc2/C1=N\O [BIO] | 87.19 | 107.4068 | – | – |
| CO/C1=C\C(C)=C\[C@@H](C)[C@@H](O)[C@@H](C)C/C(C)=C/C=C/[C@H](OC)[C@@H]([C@@H](C)[C@@H](O)[C@H](C)[C@@]2(O)C[C@@H](O)[C@H](C)[C@@H](C(C)C)O2)OC1=O [Bafilomycin AI] | 4.059 | 4.345 | – | – |
| Nc1nc(OCc2ccccc2)c2nc[nH]c2n1 [Benzylguanine] | – | – | 88.84 | 105.1044 |
| CN(C)CCCn1cc(C2=C(c3c[nH]c4ccccc34)C(=O)NC2=O)c2ccccc21.Cl [Bisindolymaleimide I, HCl] | 8.077 | 6.106 | – | – |
| C=C1C(=O)OC(CCCCCCCC)C1C(=O)O (centres unmarked) [C75] | 103.4877 | 93.63 | – | – |
| CC1=NN(c2ccc(C(=O)O)cc2)C(=O)/C1=C\c1ccc(-c2cc(C)c(C)cc2[N+](=O)[O-])o1 [C646] | – | – | 93.09 | 115.173 |
| CCCNC(=O)[C@H]1O[C@@H]1C(=O)N[C@H](C(=O)N1CCC[C@H]1C(=O)O)[C@@H](C)CC [CA-074] | 107.6022 | 115.0436 | – | – |
| Cc1nc(N)sc1-c1ccnc(Nc2cccc([N+](=O)[O-])c2)n1 [Cdk 2/9 inhibitor] | 6.309 | 14.26 | – | – |
| Nc1nc(Nc2ccc(S(N)(=O)=O)cc2)nn1C(=S)Nc1c(F)cccc1F [Cdk½ inhibitor III] | 8.59 | 18.12 | – | – |
| NC(=O)c1ccc2nc(-c3ccc(Oc4ccc(Cl)cc4)cc3)[nH]c2c1 [Chk2 inhibitor II] | 104.0524 | 139.2543 | – | – |
| CC(C)(O)/C=C/C(=O)[C@](C)(O)[C@H]1[C@H](O)C[C@@]2(C)[C@@H]3CC=C4[C@@H](C=C(O)C(=O)C4(C)C)[C@]3(C)C(=O)C[C@]12C [Cucurbitacin I] | 13.95 | 15.25 | – | – |
| C=C1[C@@H](C)[C@H]2[C@H](Cc3ccccc3)NC(=O)[C@]23[C@H](OC(C)=O)/C=C/[C@@](C)(O)C(=O)[C@@H](C)C/C=C/[C@H]3[C@@H]1O [Cytochalasin D] | 63 | 59.86 | – | – |
| NC(=O)c1ccc(-c2nc(-c3ccc4c(c3)OCCO4)c(-c3ccccn3)[nH]2)cc1 [D4476] | – | – | 93.4 | 124.271 |
| C[C@H](NC(=O)Cc1cc(F)cc(F)c1)C(=O)N[C@H](C(=O)OC(C)(C)C)c1ccccc1 [DAPT] | 93.12 | 103.8309 | – | – |
| NCCCC(N)(C(=O)O)C(F)F (centres unmarked) [DFMO] | 98.8 | 117.8191 | – | – |
| O=S(=O)(O)c1cc(N=C=S)ccc1C=Cc1ccc(N=C=S)cc1S(=O)(=O)O [DIDS] | 97.04 | 107.2053 | – | – |
| CN(C)c1nc2c(Br)c(Br)c(Br)c(Br)c2[nH]1 [DMAT] | 113.7397 | 116.7866 | – | – |
| COC(=O)CNC(=O)C(=O)OC [Dimethyloxalylglycine] | 95.769 | 119.9436 | – | – |
| CCCCCCCC(=O)OCCOC(=O)CCCCCCC [Dioctanoylglycol] | 99.78 | 109.4112 | – | – |
| CCOC(=O)[C@H]1O[C@@H]1C(=O)N[C@@H](CC(C)C)C(=O)NCCC(C)C [E-64d] | 100.8821 | 100.5678 | – | – |
| Nc1[nH]nc2nnc(-c3c(-c4ccccc4)nn4ccccc34)cc12 [ERK inhibitor II] | 103.8555 | 160.6702 | – | – |
| CCCCCC#CCC#CCC#CCC#CCCCC(=O)O [ETYA] | 95.86 | 110.2846 | – | – |
| COc1ccc2c3c([nH]c2c1)[C@H](C=C(C)C)N1C(=O)[C@@H]2CCCN2C(=O)[C@@H]1C3 [Fumitremorgin C] | 90.41 | 97.39 | – | – |
| COC(=O)[C@H](CC(C)C)NC(=O)c1ccc(NC[C@@H](N)CS)cc1-c1ccccc1 [GGTI-286] | – | 123.5827 | – | – |
| COc1ccc(C[C@H]2NC[C@H](O)[C@H]2OC(C)=O)cc1 [anisomycin] | – | 7.327 | – | – |
